Source: patent publication US20240175881A1, “SIMPLIFIED METHODS FOR MEASURING LIVER FUNCTION” (HepQuant, LLC, priority 2022, published 2024)

Key:
[1] = system: subjects with Child-Pugh A cirrhosis and a liver stiffness measurement of >15 kPa; settings: HepQuant SHUNT test; cited from earlier work
[2] = system: patients with well-compensated (Child-Pugh A) NASH cirrhosis; assay: Risk ACE from simplified cholate tests (SHUNT V2.0, DuO) in open-label resmetirom arm of MAESTRO-NAFLD-1; format: in vivo, human
From the text: MAESTRO-NAFLD-1 (NCT04197479) was a 52-week Phase 3 trial to evaluate the safety and tolerability of resmetirom, a thyroid hormone receptor-β agonist being studied for the treatment of NASH. (Harrison et al., Lancet 2019, 394:2012-24). MAESTRO-NAFLD-1 included an open-label active resmetirom treatment arm in patients with well-compensated (Child-Pugh A [CP-A]) NASH cirrhosis (FIG. 23).
Methods: Subjects (n=34) with compensated NASH cirrhosis underwent baseline testing and subsequent retesting at 28 and 48 weeks. Eligibility included at least 3 metabolic risk factors and NASH cirrhosis diagnosed by liver biopsy or accepted criteria
AUCs were calculated by a compartmental model (McRae et al., 2023 Translational Res. 252:53-63). For SHUNT V2.0: IV and oral data at 20 and 60 minutes were employed. For DuO: only oral data at 20 and 60 minutes were employed.
Risk ACE was calculated for each subject from the baseline and weeks 28 and 48 disease severity index (DSI). A Poisson model (Risk ACE) estimated the annual clinical event rate based on 220 subjects with 52 clinical events from the HALT-C Trial. The result is an event rate (clinical events per person-year). • Model A: Relationship with baseline DSI (denoted by dsi0):
Y=β0+β1dsi0 • Model D: Relationship with baseline DSI and change in DSI (denoted dsiΔ)
Difference from baseline is represented by the difference of Risk ACE Model A and Model D (Table 26).

SMILES | hepatic function [1] | subjects in whom Risk ACE decreased ([2]; DuO test, 28 weeks vs baseline) | subjects in whom Risk ACE decreased ([2]; DuO test, 48 weeks vs baseline) | Δ Risk ACE ([2]; DuO test, Baseline - Week 28 of resmetirom) | Δ Risk ACE ([2]; DuO test, Baseline - Week 28 of resmetirom, listed as resmetirom) | Δ Risk ACE ([2]; DuO test, Baseline - Week 48 of resmetirom) | Δ Risk ACE ([2]; DuO test, Baseline - Week 48 of resmetirom, listed as resmetirom) | subjects in whom Risk ACE decreased ([2]; SHUNT V2.0 test, 28 weeks vs baseline) | subjects in whom Risk ACE decreased ([2]; SHUNT V2.0 test, 48 weeks vs baseline) | Δ Risk ACE ([2]; SHUNT V2.0 test, Baseline - Week 28 of resmetirom) | Δ Risk ACE ([2]; SHUNT V2.0 test, Baseline - Week 28 of resmetirom, listed as resmetirom) | Δ Risk ACE ([2]; SHUNT V2.0 test, Baseline - Week 48 of resmetirom) | Δ Risk ACE ([2]; SHUNT V2.0 test, Baseline - Week 48 of resmetirom, listed as resmetirom) | estimated clinical event rate ([2]; simplified cholate tests, after 28 weeks of resmetirom)
CCOc1c(C(=O)O)cnn1-c1cccc(-c2cccc(C)c2OCc2ccc3c(c2C)CCN(C2CCOCC2)C3)n1 [BI 685509] | improves hepatic function |  |  |  |  |  |  |  |  |  |  |  |  | 
CC(C)c1cc(Oc2c(Cl)cc(-n3nc(C#N)c(=O)[nH]c3=O)cc2Cl)n[nH]c1=O [Resmetirom] |  | 21 of 23 | 19 of 23 | −0.0182 clinical events per person-year | significant decrease | −0.0355 clinical events per person-year | −0.0355 clinical events per person-yea | 20 of 23 | 19 of 23 | −0.0174 clinical events per person-year | −0.0170 clinical events per person-yea | −0.0325 clinical events per person-year | −0.0325 clinical events per person-yea | reduction in estimated clinical event rate
